Measurements taken from ChEMBL document CHEMBL1201862, “PubChem BioAssay data set” (2004).
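Five concentrations, 48 hours, 96-well plates. GI50: concentration for 50% inhibition of growth.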 Calls of active or inactive are those of the source. Cut-off read from the data, not from the text of the source: active = GI50 up to about 1.1 µM and inactive = higher.

Tests used:
Experiment in all cases: inhibition of tumour cell growth, NCI panel, 48 h
SNB-75 = tested on: SNB-75
UACC-62 = tested on: UACC-62
PC-3 = tested on: PC-3
HCT-116 = tested on: HCT-116
SF-295 = tested on: SF-295
NCI-H522 = tested on: NCI-H522
OVCAR-8 = tested on: OVCAR-8
SF-268 = tested on: SF-268
A549 = tested on: A549
SR = tested on: SR
COLO 205 = tested on: COLO 205
ACHN = tested on: ACHN
KM12 = tested on: KM12
HT-29 = tested on: HT-29
SK-MEL-5 = tested on: SK-MEL-5
LOX IMVI = tested on: LOX IMVI
NCI-H460 = tested on: NCI-H460
HOP-62 = tested on: HOP-62
K562 = tested on: K562
786-0 = tested on: 786-0
MDA-MB-435 = tested on: MDA-MB-435
NCI/ADR-RES = tested on: NCI/ADR-RES
Malme-3M = tested on: Malme-3M
BT-549 = tested on: BT-549
EKVX = tested on: EKVX
DU-145 = tested on: DU-145
SK-OV-3 = tested on: SK-OV-3
SK-MEL-28 = tested on: SK-MEL-28
OVCAR-4 = tested on: OVCAR-4
TK-10 = tested on: TK-10
T47D = tested on: T47D
CCRF-CEM = tested on: CCRF-CEM
OVCAR-3 = tested on: OVCAR-3
RXF 393 = tested on: RXF 393
SW-620 = tested on: SW-620
SNB-19 = tested on: SNB-19
SF-539 = tested on: SF-539
MDA-N = tested on: MDA-N
NCI-H226 = tested on: NCI-H226
RPMI-8226 = tested on: RPMI-8226
HL-60 = tested on: HL-60
IGROV-1 = tested on: IGROV-1
HCC 2998 = tested on: HCC 2998
HCT-15 = tested on: HCT-15
SN12C = tested on: SN12C
M14 = tested on: M14
OVCAR-5 = tested on: OVCAR-5
MCF7 = tested on: MCF7
HOP-92 = tested on: HOP-92
UO-31 = tested on: UO-31
U-251 = tested on: U-251
MOLT-4 = tested on: MOLT-4
UACC-257 = tested on: UACC-257
MDA-MB-231 = tested on: MDA-MB-231
Hs-578T = tested on: Hs-578T
NCI-H23 = tested on: NCI-H23
CAKI-1 = tested on: CAKI-1

SMILES: COC(=O)[C@@]12CC[C@]1(C(=O)OC)C1C(C)=CC(=O)O[C@@]12C (stereo partly drawn)
- GI50 (SNB-75): > 100 µM (inactive)
- GI50 (UACC-62): > 100 µM (inactive)
- GI50 (PC-3): > 100 µM (inactive)
- GI50 (HCT-116): > 100 µM (inactive)
- GI50 (SF-295): > 100 µM (inactive)
- GI50 (NCI-H522): > 100 µM (inactive)
- GI50 (OVCAR-8): > 100 µM (inactive)
- GI50 (SF-268): > 100 µM (inactive)
- GI50 (A549): > 100 µM (inactive)
- GI50 (SR): > 100 µM (inactive)
- GI50 (COLO 205): > 100 µM (inactive)
- GI50 (ACHN): > 100 µM (inactive)
- GI50 (KM12): > 100 µM (inactive)
- GI50 (HT-29): > 100 µM (inactive)
- GI50 (SK-MEL-5): > 100 µM (inactive)
- GI50 (LOX IMVI): > 100 µM (inactive)
- GI50 (NCI-H460): > 100 µM (inactive)
- GI50 (HOP-62): > 100 µM (inactive)
- GI50 (K562): > 100 µM (inactive)
- GI50 (786-0): > 100 µM (inactive)
- GI50 (MDA-MB-435): > 100 µM (inactive)
- GI50 (NCI/ADR-RES): > 100 µM (inactive)
- GI50 (Malme-3M): > 100 µM (inactive)
- GI50 (BT-549): > 100 µM (inactive)
- GI50 (EKVX): > 100 µM (inactive)
- GI50 (DU-145): > 100 µM (inactive)
- GI50 (SK-OV-3): > 100 µM (inactive)
- GI50 (SK-MEL-28): > 100 µM (inactive)
- GI50 (OVCAR-4): > 100 µM (inactive)
- GI50 (TK-10): > 100 µM (inactive)
- GI50 (T47D): > 100 µM (inactive)
- GI50 (CCRF-CEM): > 100 µM (inactive)
- GI50 (OVCAR-3): > 100 µM (inactive)
- GI50 (RXF 393): > 100 µM (inactive)
- GI50 (SW-620): > 100 µM (inactive)
- GI50 (SNB-19): > 100 µM (inactive)
- GI50 (SF-539): > 100 µM (inactive)
- GI50 (MDA-N): > 100 µM (inactive)
- GI50 (NCI-H226): > 100 µM (inactive)
- GI50 (RPMI-8226): > 100 µM (inactive)
- GI50 (HL-60): > 100 µM (inactive)
- GI50 (IGROV-1): > 100 µM (inactive)
- GI50 (HCC 2998): > 100 µM (inactive)
- GI50 (HCT-15): > 100 µM
- GI50 (SN12C): > 100 µM (inactive)
- GI50 (M14): > 100 µM (inactive)
- GI50 (OVCAR-5): > 100 µM (inactive)
- GI50 (MCF7): > 100 µM (inactive)
- GI50 (HOP-92): > 100 µM (inactive)
- GI50 (UO-31): > 100 µM (inactive)
- GI50 (U-251): > 100 µM (inactive)
- GI50 (MOLT-4): > 100 µM (inactive)
- GI50 (UACC-257): > 100 µM (inactive)
- GI50 (MDA-MB-231): > 100 µM (inactive)
- GI50 (Hs-578T): > 100 µM (inactive)
- GI50 (NCI-H23): > 100 µM (inactive)

SMILES: CCCCCC(C(O)C#N)C(O)(C(F)(F)F)C(F)(F)F (stereo not drawn)
- GI50 (CAKI-1): > 10 µM (inactive)
- GI50 (SNB-75): > 10 µM (inactive)
- GI50 (UACC-62): > 10 µM (inactive)
- GI50 (PC-3): > 10 µM (inactive)
- GI50 (HCT-116): > 10 µM (inactive)
- GI50 (SF-295): > 10 µM (inactive)
- GI50 (NCI-H522): > 10 µM (inactive)
- GI50 (OVCAR-8): > 10 µM (inactive)
- GI50 (SF-268): > 10 µM (inactive)
- GI50 (A549): > 10 µM (inactive)
- GI50 (SR): > 10 µM (inactive)
- GI50 (COLO 205): > 10 µM (inactive)
- GI50 (ACHN): > 10 µM (inactive)
- GI50 (KM12): > 10 µM (inactive)
- GI50 (HT-29): > 10 µM (inactive)
- GI50 (SK-MEL-5): > 10 µM (inactive)
- GI50 (LOX IMVI): > 10 µM (inactive)
- GI50 (HOP-62): > 10 µM (inactive)
- GI50 (K562): > 10 µM (inactive)
- GI50 (786-0): > 10 µM (inactive)
- GI50 (MDA-MB-435): > 10 µM (inactive)
- GI50 (NCI/ADR-RES): > 10 µM (inactive)
- GI50 (Malme-3M): > 10 µM (inactive)
- GI50 (BT-549): > 10 µM (inactive)
- GI50 (DU-145): > 10 µM (inactive)
- GI50 (SK-OV-3): > 10 µM (inactive)
- GI50 (SK-MEL-28): > 10 µM (inactive)
- GI50 (OVCAR-4): > 10 µM (inactive)
- GI50 (TK-10): > 10 µM (inactive)
- GI50 (T47D): > 10 µM (inactive)
- GI50 (CCRF-CEM): > 10 µM (inactive)
- GI50 (OVCAR-3): > 10 µM (inactive)
- GI50 (SW-620): > 10 µM (inactive)
- GI50 (SNB-19): > 10 µM (inactive)
- GI50 (SF-539): > 10 µM (inactive)
- GI50 (MDA-N): > 10 µM (inactive)
- GI50 (RPMI-8226): > 10 µM (inactive)
- GI50 (HL-60): > 10 µM (inactive)
- GI50 (IGROV-1): > 10 µM (inactive)
- GI50 (HCC 2998): > 10 µM (inactive)
- GI50 (HCT-15): > 10 µM
- GI50 (SN12C): > 10 µM (inactive)
- GI50 (M14): > 10 µM (inactive)
- GI50 (OVCAR-5): > 10 µM (inactive)
- GI50 (MCF7): > 10 µM (inactive)
- GI50 (HOP-92): > 10 µM (inactive)
- GI50 (U-251): > 10 µM (inactive)
- GI50 (MOLT-4): > 10 µM (inactive)
- GI50 (UACC-257): > 10 µM (inactive)
- GI50 (MDA-MB-231): > 10 µM (inactive)
- GI50 (Hs-578T): > 10 µM (inactive)
- GI50 (NCI-H23): > 10 µM (inactive)
